From PubChem BioAssay AID256 (DTP/NCI, 2004)
“And” between values parts separate entries of the source, which are not always exact repeats. Equal values may be shown once. Inconclusive results and toxic doses are left out.

Tested on: CD2F1 mice, L1210 leukemia ip, survival T/C
Assay: NCI In Vivo Anticancer Drug Screen. Data for tumor model L1210 Leukemia (intraperitoneal) in CD2F1 (CDF1) mice
Conditions: higher = longer survival
Method in brief: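 Tumor-bearing mice (transplanted tumor) were split into treated and vehicle control groups, and the measured endpoint of each treated group was divided by that of its vehicle controls.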

[1] = endpoint: mean survival time, dose: 100.0 mg/kg/injection, schedule: Q04DX003 (ip), vehicle: other
[2] = endpoint: mean survival time, dose: 400.0 mg/kg/injection, schedule: Q04DX003 (ip), vehicle: other
[3] = endpoint: mean survival time, dose: 100.0 mg/kg/injection, schedule: Q04DX003 (ip), vehicle: saline with Tween-80
[4] = endpoint: mean survival time, dose: 200.0 mg/kg/injection, schedule: Q04DX003 (ip), vehicle: saline with Tween-80
[5] = endpoint: mean survival time, dose: 400.0 mg/kg/injection, schedule: Q04DX003 (ip), vehicle: saline with Tween-80
[6] = endpoint: mean survival time, dose: 100.0 mg/kg/injection, schedule: Q01DX009 (ip), vehicle: saline with Tween-80
[7] = endpoint: mean survival time, dose: 200.0 mg/kg/injection, schedule: Q01DX009 (ip), vehicle: saline with Tween-80
[8] = endpoint: mean survival time, dose: 400.0 mg/kg/injection, schedule: Q01DX009 (ip), vehicle: saline with Tween-80

Clc1ccc(N=C/C=C/c2ccccc2)cc1
T/C (endpoint: mean survival time, dose: 25.0 mg/kg/injection, schedule: Q01DX009 (ip), vehicle: other): 101 % of control
T/C (endpoint: mean survival time, dose: 50.0 mg/kg/injection, schedule: Q01DX009 (ip), vehicle: other): 97 % of control
T/C (endpoint: mean survival time, dose: 100.0 mg/kg/injection, schedule: Q01DX009 (ip), vehicle: other): 95 % of control
T/C [1]: 87 % of control
T/C [2]: 89 % of control

CCC(c1ccc(O)c(C2CCCCC2)c1)C(CC)c1ccc(OC(=O)c2ccccc2)c(C2CCCCC2)c1 (configuration not stated)
T/C (endpoint: mean survival time, dose: 75.0 mg/kg/injection, schedule: Q01DX001 (ip), vehicle: saline): 109 % of control
T/C (endpoint: mean survival time, dose: 150.0 mg/kg/injection, schedule: Q01DX001 (ip), vehicle: saline): 100 % of control
T/C (endpoint: mean survival time, dose: 300.0 mg/kg/injection, schedule: Q01DX001 (ip), vehicle: saline): 106 % of control

CC(NC(=O)OCc1ccccc1)C(=O)NC(CC(=O)O)C(=O)O (configuration not stated)
T/C (endpoint: mean survival time, dose: 100.0 mg/kg/injection, schedule: Q04DX003 (ip), vehicle: saline): 92 % of control

CC(=O)c1ccc(N=C2C=CC(=O)O2)cc1
T/C [3]: 102 % of control
T/C [4]: 96 % of control
T/C [5]: 96 % of control

COC(=O)c1c(C)c(-c2ccccc2)c(-c2ccccc2)c(C)c1C(=O)OC
T/C (endpoint: mean survival time, dose: 100.0 mg/kg/injection, schedule: Q04DX002 (ip), vehicle: saline with Tween-80): 98 % of control
T/C (endpoint: mean survival time, dose: 200.0 mg/kg/injection, schedule: Q04DX002 (ip), vehicle: saline with Tween-80): 95 % of control
T/C (endpoint: mean survival time, dose: 400.0 mg/kg/injection, schedule: Q04DX002 (ip), vehicle: saline with Tween-80): 95 % of control

N/N=C(\N)c1ccccc1
T/C (endpoint: mean survival time, dose: 100.0 mg/kg/injection, schedule: Q01DX001 (ip), vehicle: saline): 117 % of control
T/C (endpoint: mean survival time, dose: 200.0 mg/kg/injection, schedule: Q01DX001 (ip), vehicle: saline): 123 % of control

O=NN(CCF)C(=O)NC1CCCCC1
T/C (endpoint: median survival time, dose: 2.5 mg/kg/injection, schedule: Q01DX001 (ip), vehicle: saline): 101 % of control
T/C (endpoint: median survival time, dose: 2.5 mg/kg/injection, schedule: Q04DX002 (ip), vehicle: saline): 93 % of control
T/C (endpoint: median survival time, dose: 5.0 mg/kg/injection, schedule: Q01DX001 (ip), vehicle: saline): 101 % of control
T/C (endpoint: median survival time, dose: 5.0 mg/kg/injection, schedule: Q04DX002 (ip), vehicle: saline): 106 % of control
T/C (endpoint: median survival time, dose: 10.0 mg/kg/injection, schedule: Q01DX001 (ip), vehicle: saline): 102 % of control
T/C (endpoint: median survival time, dose: 10.0 mg/kg/injection, schedule: Q04DX002 (ip), vehicle: saline): 120 % of control and 223 % of control
T/C (endpoint: median survival time, dose: 20.0 mg/kg/injection, schedule: Q01DX001 (ip), vehicle: saline): 103 % of control
T/C (endpoint: median survival time, dose: 20.0 mg/kg/injection, schedule: Q04DX002 (ip), vehicle: saline): 365 % of control
T/C (endpoint: median survival time, dose: 40.0 mg/kg/injection, schedule: Q01DX001 (ip), vehicle: saline): 120 % of control
T/C (endpoint: median survival time, dose: 40.0 mg/kg/injection, schedule: Q04DX002 (ip), vehicle: saline): 216 % of control and 365 % of control
T/C (endpoint: median survival time, dose: 80.0 mg/kg/injection, schedule: Q01DX001 (ip), vehicle: saline): 168 % of control
T/C (endpoint: median survival time, dose: 80.0 mg/kg/injection, schedule: Q04DX002 (ip), vehicle: saline): 207 % of control and 361 % of control

NC1C(O)C(N)C(O)C(O)C1O (configuration not stated)
T/C (endpoint: mean survival time, dose: 100.0 mg/kg/injection, schedule: Q01DX009 (ip), vehicle: saline sonified): 90 % of control
T/C (endpoint: mean survival time, dose: 200.0 mg/kg/injection, schedule: Q01DX009 (ip), vehicle: saline sonified): 95 % of control
T/C (endpoint: mean survival time, dose: 400.0 mg/kg/injection, schedule: Q01DX009 (ip), vehicle: saline sonified): 95 % of control

CC(C)n1cnc2c(=S)nc[nH]c21
T/C (endpoint: mean survival time, dose: 41.0 mg/kg/injection, schedule: Q01DX Z (ip), vehicle: saline): 121 % of control
T/C (endpoint: mean survival time, dose: 94.0 mg/kg/injection, schedule: Q01DX Z (ip), vehicle: saline): 171 % of control

CCCCCCCCCCCC(=O)c1ccccc1
T/C [6]: 102 % of control
T/C [1]: 95 % of control
T/C [7]: 102 % of control
T/C (endpoint: mean survival time, dose: 200.0 mg/kg/injection, schedule: Q04DX003 (ip), vehicle: other): 97 % of control
T/C [8]: 98 % of control
T/C [2]: 92 % of control

O=C1NC(=O)C([P+](c2ccccc2)(c2ccccc2)c2ccccc2)C1=O (configuration not stated)
T/C [3]: 102 % of control
T/C [4]: 102 % of control
T/C [5]: 98 % of control

CNC(=O)Nc1ccc(S(N)(=O)=O)cc1
T/C [6]: 97 % of control
T/C [7]: 91 % of control
T/C [8]: 100 % of control

CC1Oc2ccccc2OC1C(=O)NN (configuration not stated)
T/C [6]: 92 % of control
T/C [7]: 94 % of control
T/C [8]: 94 % of control

C#CC(C)OCCO (configuration not stated)
T/C (endpoint: mean survival time, dose: 100.0 mg/kg/injection, schedule: Q04DX003 (ip), vehicle: acetone): 104 % of control
T/C (endpoint: mean survival time, dose: 200.0 mg/kg/injection, schedule: Q04DX003 (ip), vehicle: acetone): 98 % of control
T/C (endpoint: mean survival time, dose: 400.0 mg/kg/injection, schedule: Q04DX003 (ip), vehicle: acetone): 120 % of control
